According to patent publication US20250346606A1, “CAMPTOTHECIN COMPOUND, PREPARATION METHOD THEREFOR, AND APPLICATION THEREOF” (SICHUAN KELUN-BIOTECH BIOPHARMACEUTICAL CO., LTD., priority 2021, published 2025):
Where two headings read alike, the source gives them in different places.

Legend:
Assay type in all cases: cell-based, Human
HT29 cells = assay: Inhibitory effect of compounds on HT29 cell proliferation; details: read-out: IC50, inhibitory activity on HT29 cell proliferation
Outline: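 Adherent HT29 cells incubated with diluted compounds for 72 h; viability read by luminescence (Cell Counting-Lite 2.0, 10 min). Inhibition calculated against cell-free background and vehicle-treated cells; IC50 from four-parameter curve fit.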

SKOV-3 cells = assay: Inhibitory effect of compounds on SKOV-3 cell proliferation; details: read-out: IC50, inhibitory activity on SKOV-3 cell proliferation
NCI-N87 cells = assay: Inhibitory effect of compounds on NCI-N87 cell proliferation
Outline: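 Adherent NCI-N87 cells were exposed to compound dilutions for 72 h. Viability measured by Cell Counting-Lite 2.0 luminescence, with inhibition calculated against vehicle and cell-free background RLU. IC50 from four-parameter fit.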

Jeko-1 cells = assay: Inhibitory effect of compounds on Jeko-1 cell proliferation; details: read-out: IC50, inhibitory activity on Jeko-1 cell proliferation
Outline: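 After 72 h incubation with compound, Jeko-1 cell viability was measured by Cell Counting-Lite 2.0 luminescence (10 min reaction). Inhibition was calculated relative to vehicle and cell-free background RLU, and IC50 was obtained by four-parameter curve fitting.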

[1] = Homo sapiens, NCI-N87, 72 h, read-out: IC50, inhibitory activity on NCI-N87 cell proliferation, NCI-N87 human gastric cancer cells, 72 h incubation, Cell Counting-Lite 2.0

Compound: CC[C@@]1(O)C(=O)OCc2c1cc1n(c2=O)Cc2c-1nc1cc(Cl)c(C)c3c1c2[C@@H](NC(=O)[C@@H](O)C1CC1)CC3 [Example 5 (2-12-A), (2S)—N-((1S,9S)-5-chloro-9-ethyl-9-hydroxy-4-methyl-10,13-dioxo-2,3,9,10,13,15-hexahydro-1H,12H-benzo[de]pyrano[3′,4′:6,7]indolizino[1,2-b]quinolin-1-yl)-2-cyclopropyl-2-hydroxyacetamide]
- IC50 (HT29 cells; Homo sapiens, HT-29, 72 h): 3.01 nM
- IC50 (SKOV-3 cells; Homo sapiens, SK-OV-3, 72 h): 6.85 nM
- IC50 (NCI-N87 cells; [1]): 4.91 nM

Compound: CC[C@@]1(O)C(=O)OCc2c1cc1n(c2=O)Cc2c-1nc1cc(Cl)c(C)c3c1c2[C@H](NC(=O)[C@@H](O)C1CC1)CC3 [Example 5 (2-12-B), (2S)—N-((1R,9S)-5-chloro-9-ethyl-9-hydroxy-4-methyl-10,13-dioxo-2,3,9,10,13,15-hexahydro-1H,12H-benzo[de]pyrano[3′,4′:6,7]indolizino[1,2-b]quinolin-1-yl)-2-cyclopropyl-2-hydroxyacetamide]
- IC50 (HT29 cells; Homo sapiens, HT-29, 72 h): 2.34 nM
- IC50 (SKOV-3 cells; Homo sapiens, SK-OV-3, 72 h): 4.99 nM
- IC50 (NCI-N87 cells; [1]): 4.97 nM

Compound: CC#C[C@@H](O)C(=O)N[C@H]1CCc2c(C)c(F)cc3nc4c(c1c23)Cn1c-4cc2c(c1=O)COC(=O)[C@]2(O)CC [Example 1 (1-1-A), (R)—N-((1S,9S)-9-ethyl-5-fluoro-9-hydroxy-4-methyl-10,13-dioxo-2,3,9,10,13,15-hexahydro-1H,12H-benzo[de]pyrano[3′,4′:6,7]indolizino[1,2-b]quinolin-1-yl)-2-hydroxypent-3-yneamide]
- IC50 (HT29 cells; Homo sapiens, HT-29, 72 h): 1.28 nM
- IC50 (SKOV-3 cells; Homo sapiens, SK-OV-3, 72 h): 7.81 nM
- IC50 (NCI-N87 cells; [1]): 4.58 nM
- IC50 (Jeko-1 cells; Homo sapiens, JeKo-1, 72 h): 1.33 nM

Compound: (2S)—N-((1S,9S)-5-chloro-9-ethyl-9-hydroxy-4-methyl-10,13-dioxo-2,3,9,10,13,15-hexahydro-1H,12H-benzo[de]pyrano[3′,4′:6,7]indolizino[1,2-b]quinolin-1-yl)-2-hydroxypropylamine [Example 4 (2-7-A)]
- IC50 (HT29 cells; HT29 human colon cancer cells, 72 h incubation, Cell Counting-Lite 2.0): 1.56 nM
- IC50 (SKOV-3 cells; SKOV-3 human ovarian cancer cells, 72 h incubation, Cell Counting-Lite 2.0): 8.64 nM
- IC50 (NCI-N87 cells; NCI-N87 human gastric cancer cells, 72 h incubation, Cell Counting-Lite 2.0, read-out: IC50, inhibitory activity on NCI-N87 cell proliferation): 3.76 nM
- IC50 (Jeko-1 cells; Jeko-1 human mantle cell lymphoma cells, 72 h incubation, Cell Counting-Lite 2.0): 0.28 nM
